According to patent publication US20180353443A1, “CURCUMIN-BASED COMPOSITIONS & METHODS OF USE THEREOF” (priority 2015, published 2018):

Key:
Type in all cases: cell-based
NFkB-p65 = test: Western blot of cytoplasmic and nuclear NFkB-p65 (nucleotranslocation) in BV2 cells; conditions: 22.0 μg/ml curcuminoid, LPS induction, FIGS. 4 and 5
Protocol: (§1) Western blot analysis was performed in multiple varying formats before optimization was achieved. The BV2 microglia cell line was cultured in Dulbecco's Modified Eagle's Medium (DMEM)—complete medium. The complete medium consisted of DMEM, 1% Ampicillin, and 10% Fetal Bovine Serum (FBS). BV2 microglia cells, at a cell count of approximately 2×10^6, were seeded in each well (6 wells per plate) with 2.0 ml complete medium and cultured overnight in a ThermaForma HepaFilter Series II Co2 Incubator at 37° Celsius. Upon establishing confluence, subconfluent cells were washed out and the wells were prepared with drug pre-treatment after overnight incubation.
(§2) The test drugs (curcuminoids) were procured as follows: curcumin I research standard (03926) (ChromaDex Irvine, Calif. USA) (97.7% purity); curcumin II research standard (04230) (ChromaDex Irvine, Calif. USA) (97.3%); curcumin III research standard (B6938) (Sigma-Aldrich St. Louis, Mo., USA) (97.7% purity); curcumin extract (curcumin I—77.7%, curcumin II—16.9%, curcumin III—0.9%) research standard (03928) (ChromaDex Irvine, Calif. USA) (95.3% purity); and Lipopolysaccharide (LPS) from E. Coli (L2630) (Sigma-Aldrich St. Louis, Mo., USA).
(§3) Curcuminoids are not soluble in aqueous medium due to their hydrophobic characteristic. However, curcuminoid extracts are soluble in polar organic solvents, such as DMSO and acetone. In this Example, each curcuminoid preparation was first dissolved in DMSO. DMSO was used in the drug preparation at 0.2%. The drug/DMSO solution was subsequently dissolved in DMEM to achieve a final drug concentration for each curcuminoid preparation tested—22.0 μg/ml curcuminoid. […]
(§4) Total protein concentration for each fraction was determined using a Bio Rad Protein Assay that is based on the Bradford Assay (dye-binding method). […]
(§5) The targets analyzed in the Western Blot included NFkB-p65 and its nucleocytoplasmic translocation, as well as kinases (including MSK1) and their covalent modifications upstream of and involved in the regulation of NFkB. […]

[1] = tested on: NFkB-p65 serine 276 phosphorylation; test: Western blot of NFkB-p65 phosphorylated at serine 276 in BV2 cells; conditions: 22.0 μg/ml curcuminoid, LPS induction, FIGS. 6 and 7
Protocol: as §1, §2, §3, §4, §5

miRNA148a = test: RT qPCR of miRNA148a levels in BV2 cells; conditions: 22 μg/ml curcuminoid, 30 min pre-treatment, with or without LPS, FIG. 3
Protocol: Reverse transcriptase (RT) quantitative PCR (RT qPCR) was performed to measure miRNA 148a levels in cells that were treated with curcumin I, II, or III, or a control. More particularly, six-well plates were seeded with BV2 cells at a concentration of about 1.5×10^6 BV2 cells per well. Drug (curcumin I, II, or III) treatment was carried out in the same manner as was executed for the western blot experimentation described in Example 3 below. Ten wells were prepared and, upon confluence, the next day the drug treatment was designed to evaluate basal influence of curcumin extract, curcumin I, curcumin II, curcumin III, as well as each curcumin drug with LPS stimulation. After 30 minutes of incubation with the drug treatment, LPS was used to induce the cells in each well labelled to be induced by LPS.
RNA was ultimately extracted from the cells to determine the levels of miRNA148a. A Qiagen miRNeasy Mini Kit (Cat. No. 217004) was used to extract total RNA along with miRNA. The miRNA was reverse transcribed to cDNA using a gene-specific RT primer and the miScript II RT Kit by Qiagen (Cat. No. 218161). An miRNA148a primer assay was acquired from Qiagen (Cat. No. 00003556). […]

[2] = tested on: MSK1 serine 376 phosphorylation; test: Western blot of MSK1 phosphorylated at serine 376 in BV2 cells; conditions: 22.0 μg/ml curcuminoid, LPS induction, FIGS. 10 and 11
Protocol: as §1, with “incubation. […]” for “incubation.”
as §4, §5

MSK1 = test: Western blot of cytoplasmic and nuclear MSK1 protein levels in BV2 cells; conditions: 22.0 μg/ml curcuminoid, LPS induction
Protocol: as §1, with “incubation. […]” for “incubation.”
as §4, §5

Row | Compound | inhibition of NFkB-p65 nucleotranslocation (cytosolic and nuclear NFkB-p65) (NFkB-p65) | inhibition of NFkB-p65 serine 276 phosphorylation [1] | effect on miRNA148a levels (miRNA148a) | inhibition of MSK1 serine 376 phosphorylation [2] | effect on MSK1 protein levels in the cytoplasm (MSK1; FIG. 8) | effect on MSK1 protein levels in the nucleus (MSK1; FIG. 9)
1 | COc1cc(/C=C/C(=O)/C=C(O)/C=C/c2ccc(O)c(OC)c2)ccc1O [curcumin I, (1E,6E)-1,7-Bis(4-hydroxy-3-methoxyphenyl)-1,6-heptadiene-3,5-dione] | not significantly inhibited | moderately inhibit | – | – | – | –
2 | COc1cc(/C=C/C(=O)CC(=O)/C=C/c2ccc(O)cc2)ccc1O [curcumin II, (1E,6E)-1-(4-Hydroxy-3-methoxyphenyl)-7-(4-hydroxyphenyl)hepta-1,6-diene-3,5-dione] | not significantly inhibited | moderately inhibit | inhibits | inhibit | – | –
3 | O=C(/C=C/c1ccc(O)cc1)CC(=O)/C=C/c1ccc(O)cc1 [curcumin III, (1E,6E)-1,7-bis(4-hydroxyphenyl)hepta-1,6-diene-3,5-dione] | not significantly inhibited | moderately inhibit | significantly increase | inhibition | significantly inhibited and downregulated | significantly inhibited and downregulated
